Results published in patent US10787452B2 (Vertex Pharmaceuticals Incorporated, priority 2012, dated 2020).

These compounds were tested on HCT116 colorectal cancer cells (assay: Cisplatin sensitization assay (96 h cell viability MTS)). Details: 96 h MTS, compound plus Cisplatin.
Type: cell-based
Summary of the method: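 Cisplatin and compound are dosed at the same time, both serially diluted 2-fold from 10 μM final across a full matrix. Plates sit at 37° C in 5% CO2 for 96 h before MTS addition.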
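Further: compound concentration needed to lower the Cisplatin-alone IC50 by a set fold.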

| Structure (SMILES) | Cisplatin Sensitization Assay |
| --- | --- |
| CN1CCN(c2c(F)cncc2NC(=O)c2c(N)nn3cc(F)cnc23)CC1 [I-N-15, 2-amino-6-fluoro-N-(5-fluoro-4-(4-methylpiperazin-1-yl)pyridin-3-yl)pyrazolo[1,5-a]pyrimidine-3-carboxamide] | +++ (Compounds with a Cisplatin sensitization value of <0.02 μM are marked with “+++.”) |
| Cc1cncc(NC(=O)c2c(N)nn3cc(F)cnc23)c1N1CCN(C2COC2)CC1 [I-N-16, 2-amino-6-fluoro-N-(5-methyl-4-(4-(oxetan-3-yl)piperazin-1-yl)pyridin-3-yl)pyrazolo[1,5-a]pyrimidine-3-carboxamide] | +++ (Compounds with a Cisplatin sensitization value of <0.02 μM are marked with “+++.”) |
| CCN1CCN(c2ccncc2NC(=O)c2c(N)nn3cc(F)cnc23)CC1 [I-N-17, 2-amino-N-(4-(4-ethylpiperazin-1-yl)pyridin-3-yl)-6-fluoropyrazolo[1,5-a]pyrimidine-3-carboxamide] | +++ (Compounds with a Cisplatin sensitization value of <0.02 μM are marked with “+++.”) |
| Nc1nn2cc(F)cnc2c1C(=O)Nc1cnccc1N1CCN2CCC1CC2 [I-N-18, N-(4-(1,4-diazabicyclo[3.2.2]nonan-4-yl)pyridin-3-yl)-2-amino-6-fluoropyrazolo[1,5-a]pyrimidine-3-carboxamide] | ++ (Compounds with a Cisplatin sensitization value >0.02 μM but <0.2 μM are marked with “++.”) |
| Nc1nn2cc(F)cnc2c1C(=O)Nc1cnccc1N1CCN(CC(F)(F)F)CC1 [I-N-20, 2-amino-6-fluoro-N-(4-(4-(2,2,2-trifluoroethyl)piperazin-1-yl)pyridin-3-yl)pyrazolo[1,5-a]pyrimidine-3-carboxamide] | +++ (Compounds with a Cisplatin sensitization value of <0.02 μM are marked with “+++.”) |
| Nc1nn2cc(F)cnc2c1C(=O)Nc1cnccc1N1CCN2CCC[C@H]2C1 [I-N-21, (S)-2-amino-6-fluoro-N-(4-(hexahydropyrrolo[1,2-a]pyrazin-2(1H)-yl)pyridin-3-yl)pyrazolo[1,5-a]pyrimidine-3-carboxamide] | +++ (Compounds with a Cisplatin sensitization value of <0.02 μM are marked with “+++.”) |
| C[C@@H]1CN(C2COC2)CCN1c1ccncc1NC(=O)c1c(N)nn2cc(F)cnc12 [I-N-23, (R)-2-amino-6-fluoro-N-(4-(2-methyl-4-(oxetan-3-yl)piperazin-1-yl)pyridin-3-yl)pyrazolo[1,5-a]pyrimidine-3-carboxamide] | +++ (Compounds with a Cisplatin sensitization value of <0.02 μM are marked with “+++.”) |
| C[C@H]1CN(C2COC2)CCN1c1ccncc1NC(=O)c1c(N)nn2cc(F)cnc12 [I-N-24, (S)-2-amino-6-fluoro-N-(4-(2-methyl-4-(oxetan-3-yl)piperazin-1-yl)pyridin-3-yl)pyrazolo[1,5-a]pyrimidine-3-carboxamide] | +++ (Compounds with a Cisplatin sensitization value of <0.02 μM are marked with “+++.”) |
| Nc1nn2cc(F)cnc2c1C(=O)Nc1cnccc1-n1cccn1 [I-N-26, N-(4-(1H-pyrazol-1-yl)pyridin-3-yl)-2-amino-6-fluoropyrazolo[1,5-a]pyrimidine-3-carboxamide] | + (Compounds with a Cisplatin sensitization value >0.2 μM but <5 μM are marked with “+.”) |
| Nc1nn2cc(F)cnc2c1C(=O)Nc1cnccc1-n1cnc(C(F)(F)F)c1 [I-N-27, 2-amino-6-fluoro-N-(4-(4-(trifluoromethyl)-1H-imidazol-1-yl)pyridin-3-yl)pyrazolo[1,5-a]pyrimidine-3-carboxamide] | ++ (Compounds with a Cisplatin sensitization value >0.02 μM but <0.2 μM are marked with “++.”) |
| Cc1nccn1-c1ccncc1NC(=O)c1c(N)nn2cc(F)cnc12 [I-N-28, 2-amino-6-fluoro-N-(4-(2-methyl-1H-imidazol-1-yl)pyridin-3-yl)pyrazolo[1,5-a]pyrimidine-3-carboxamide] | +++ (Compounds with a Cisplatin sensitization value of <0.02 μM are marked with “+++.”) |
| Nc1nn2cc(Cl)cnc2c1C(=O)Nc1cnccc1-n1ccnc1 [I-N-29, N-(4-(1H-imidazol-1-yl)pyridin-3-yl)-2-amino-6-chloropyrazolo[1,5-a]pyrimidine-3-carboxamide] | ++ (Compounds with a Cisplatin sensitization value >0.02 μM but <0.2 μM are marked with “++.”) |
| Cc1nc(C(F)(F)F)cn1-c1ccncc1NC(=O)c1c(N)nn2cc(F)cnc12 [I-N-30, 2-amino-6-fluoro-N-(4-(2-methyl-4-(trifluoromethyl)-1H-imidazol-1-yl)pyridin-3-yl)pyrazolo[1,5-a]pyrimidine-3-carboxamide] | ++ (Compounds with a Cisplatin sensitization value >0.02 μM but <0.2 μM are marked with “++.”) |
| Nc1nn2cc(F)cnc2c1C(=O)Nc1cnccc1N1CCN(C2COC2)C2CC21 (centres unmarked) [I-N-31, 2-amino-6-fluoro-N-(4-(5-(oxetan-3-yl)-2,5-diazabicyclo[4.1.0]heptan-2-yl)pyridin-3-yl)pyrazolo[1,5-a]pyrimidine-3-carboxamide] | + (Compounds with a Cisplatin sensitization value >0.2 μM but <5 μM are marked with “+.”) |
| Nc1nn2cc(F)cnc2c1C(=O)Nc1cncc(C2CC2)c1N1CCN(C2COC2)CC1 [I-N-32, 2-amino-N-(5-cyclopropyl-4-(4-(oxetan-3-yl)piperazin-1-yl)pyridin-3-yl)-6-fluoropyrazolo[1,5-a]pyrimidine-3-carboxamide] | ++ (Compounds with a Cisplatin sensitization value >0.02 μM but <0.2 μM are marked with “++.”) |
| Nc1nn2cc(F)cnc2c1C(=O)Nc1cnccc1N1CCN(C2CC2)CC1 [I-N-33, 2-amino-N-(4-(4-cyclopropylpiperazin-1-yl)pyridin-3-yl)-6-fluoropyrazolo[1,5-a]pyrimidine-3-carboxamide] | + (Compounds with a Cisplatin sensitization value >0.2 μM but <5 μM are marked with “+.”) |
| CC(C)(C)N1CCN(c2ccncc2NC(=O)c2c(N)nn3cc(Cl)cnc23)CC1 [I-N-34, 2-amino-N-(4-(4-(tert-butyl)piperazin-1-yl)pyridin-3-yl)-6-chloropyrazolo[1,5-a]pyrimidine-3-carboxamide] | ++ (Compounds with a Cisplatin sensitization value >0.02 μM but <0.2 μM are marked with “++.”) |
| CN(C)[C@H]1CCN(c2ccncc2NC(=O)c2c(N)nn3cc(Cl)cnc23)C[C@@H]1O [I-N-35, 2-amino-6-chloro-N-(4-((3S,4S)-4-(dimethylamino)-3-hydroxypiperidin-1-yl)pyridin-3-yl)pyrazolo[1,5-a]pyrimidine-3-carboxamide] | + (Compounds with a Cisplatin sensitization value >0.2 μM but <5 μM are marked with “+.”) |
| CN(C)CC1(O)CCN(c2ccncc2NC(=O)c2c(N)nn3cc(Cl)cnc23)CC1 [I-N-36, 2-amino-6-chloro-N-(4-(4-((dimethylamino)methyl)-4-hydroxypiperidin-1-yl)pyridin-3-yl)pyrazolo[1,5-a]pyrimidine-3-carboxamide] | ++ (Compounds with a Cisplatin sensitization value >0.02 μM but <0.2 μM are marked with “++.”) |
| CN(C)C1CCN(c2ccncc2NC(=O)c2c(N)nn3cc(Cl)cnc23)CC1 [I-N-37, 2-amino-6-chloro-N-(4-(4-(dimethylamino)piperidin-1-yl)pyridin-3-yl)pyrazolo[1,5-a]pyrimidine-3-carboxamide] | ++ (Compounds with a Cisplatin sensitization value >0.02 μM but <0.2 μM are marked with “++.”) |
| Nc1nn2cc(F)cnc2c1C(=O)Nc1cncc(Cl)c1N1CCN2CCN(C3COC3)CC2C1 (centres unmarked) [I-N-38, 2-amino-N-(5-chloro-4-(8-(oxetan-3-yl)hexahydro-1H-pyrazino[1,2-a]pyrazin-2(6H)-yl)pyridin-3-yl)-6-fluoropyrazolo[1,5-a]pyrimidine-3-carboxamide] | ++ (Compounds with a Cisplatin sensitization value >0.02 μM but <0.2 μM are marked with “++.”) |
| CC(C)N1CCN(c2ccncc2NC(=O)c2c(N)nn3cc(Cl)cnc23)CC1 [I-N-39, 2-amino-6-chloro-N-(4-(4-isopropylpiperazin-1-yl)pyridin-3-yl)pyrazolo[1,5-a]pyrimidine-3-carboxamide] | ++ (Compounds with a Cisplatin sensitization value >0.02 μM but <0.2 μM are marked with “++.”) |
| CN(C)C1CCCN(c2ccncc2NC(=O)c2c(N)nn3cc(Cl)cnc23)C1 (centres unmarked) [I-N-40, 2-amino-6-chloro-N-(4-(3-(dimethylamino)piperidin-1-yl)pyridin-3-yl)pyrazolo[1,5-a]pyrimidine-3-carboxamide] | ++ (Compounds with a Cisplatin sensitization value >0.02 μM but <0.2 μM are marked with “++.”) |
| CN1CCN(c2c(Cl)cncc2NC(=O)c2c(N)nn3cc(Cl)cnc23)CC1 [I-N-41, 2-amino-6-chloro-N-(5-chloro-4-(4-methylpiperazin-1-yl)pyridin-3-yl)pyrazolo[1,5-a]pyrimidine-3-carboxamide] | +++ (Compounds with a Cisplatin sensitization value of <0.02 μM are marked with “+++.”) |
| CN1CCCN(c2ccncc2NC(=O)c2c(N)nn3cc(Cl)cnc23)CC1 [I-N-43, 2-amino-6-chloro-N-(4-(4-methyl-1,4-diazepan-1-yl)pyridin-3-yl)pyrazolo[1,5-a]pyrimidine-3-carboxamide] | ++ (Compounds with a Cisplatin sensitization value >0.02 μM but <0.2 μM are marked with “++.”) |
| Nc1nn2cc(Cl)cnc2c1C(=O)Nc1cnccc1N1CCn2ccnc2C1 [I-N-44, 2-amino-6-chloro-N-(4-(5,6-dihydroimidazo[1,2-a]pyrazin-7(8H)-yl)pyridin-3-yl)pyrazolo[1,5-a]pyrimidine-3-carboxamide] | ++ (Compounds with a Cisplatin sensitization value >0.02 μM but <0.2 μM are marked with “++.”) |
